# Assay results reported in patent US7696161B2, “Exendin agonist compounds” (Amylin Pharmaceuticals, Inc., priority 1997, dated 2010).
# Tests used:
# [1] = molecular target: cyclase (RINm5f membranes); assay: Cyclase activation study (cAMP by SPA immunoassay, membranes); type: biochemical; details: cAMP in membranes, 20 minutes incubation at 37° C.
# Method: GLP-1(7-36) [NH2] was purchased from Bachem (Torrance, Calif.). All other peptides were prepared using synthesis methods such as those described therein. All chemicals were of the highest commercial grade. The cAMP SPA immunoassay was purchased from Amersham. The radioligands were purchased from New England Nuclear (Boston, Mass.). […] Cells were grown to confluence then harvested and homogenized using on a Polytron homogenizer. Cell homogenates were stored frozen at −70° C. until used. […] Membranes and peptides were combined in […] of assay buffer in 96 well filter-bottom plates (Millipore Corp., Bedford, Mass.). […] Supernatant cAMP contents were quantitated by SPA immunoassay. […] The biological activity of a particular sample was expressed as an EC50 value, calculated as described above.
# C57BLKS/J-m-db mice = assay: Determination of blood glucose levels in db/db mice; type: in vivo; details: 1 μg subcutaneous, plasma glucose one hour after injection vs baseline
# [2] = test system: Harlan Sprague Dawley (HSD) rats; assay: Gastric emptying in rats (phenol red gel gavage); type: in vivo; details: for EC50 (gastric emptying): conscious male HSD rats, gastric contents remaining 20 min after gavage; for effect on gastric emptying (in words): male HSD rats, dose-response 0.1-100 μg
# Excerpt: This experiment followed a modification of the method of Scarpignato, et al., Arch. Int. Pharmacodyn. […] Male Harlan Sprague Dawley (HSD) rats were used. […] ID. […] Twenty minutes after gavage, rats were anesthetized using 5% halothane, the stomach exposed and clamped at the pyloric and lower esophageal sphincters using artery forceps, removed and opened into an alkaline solution which was made up to a fixed volume. Stomach content was derived from the intensity of the phenol red in the alkaline solution, measured by absorbance at a wavelength of 560 nm. In separate experiments on 7 rats, the stomach and small intestine were both excised and opened into an alkaline solution. […] ID.
Compound,EC50 [1] [nM],% drop in glucose (C57BLKS/J-m-db mice) [%],EC50 (gastric emptying) [2] [µg],effect on gastric emptying (in words) [2]
CC[C@H](C)[C@H](NC(=O)[C@H](Cc1ccccc1)NC(=O)[C@H](CC(C)C)NC(=O)[C@H](CCCNC(=N)N)NC(=O)[C@@H](NC(=O)[C@H](C)NC(=O)[C@H](CCC(=O)O)NC(=O)[C@H](CCC(=O)O)NC(=O)[C@H](CCC(=O)O)NC(=O)[C@H](CC(C)C)NC(=O)[C@H](CCC(N)=O)NC(=O)[C@H](C)NC(=O)[C@H](CO)NC(=O)[C@H](CC(C)C)NC(=O)[C@H](CC(=O)O)NC(=O)[C@H](CO)NC(=O)[C@@H](NC(=O)[C@H](Cc1ccccc1)NC(=O)[C@@H](NC(=O)CNC(=O)[C@H](CCC(=O)O)NC(=O)CNC(=O)[C@@H](N)Cc1c[nH]cn1)[C@@H](C)O)[C@@H](C)O)C(C)C)C(=O)N[C@@H](CCC(=O)O)C(=O)N[C@@H](Cc1ccccc1)C(=O)N[C@@H](CC(C)C)C(=O)N[C@@H](CCCCN)C(=O)N[C@@H](CC(N)=O)C(N)=O [Compound 10],5.37,46,0.27,potent inhibitors of gastric emptying
CC[C@H](C)[C@H](NC(=O)[C@H](Cc1ccccc1)NC(=O)[C@H](CC(C)C)NC(=O)[C@H](CCCNC(=N)N)NC(=O)[C@@H](NC(=O)[C@H](C)NC(=O)[C@H](CCC(=O)O)NC(=O)[C@H](CCC(=O)O)NC(=O)[C@H](C)NC(=O)[C@H](CC(C)C)NC(=O)[C@H](CCC(N)=O)NC(=O)[C@H](CCCCN)NC(=O)[C@H](CO)NC(=O)[C@H](CC(C)C)NC(=O)[C@H](CC(=O)O)NC(=O)[C@H](CO)NC(=O)[C@@H](NC(=O)[C@H](Cc1ccccc1)NC(=O)[C@@H](NC(=O)CNC(=O)[C@H](CCC(=O)O)NC(=O)CNC(=O)[C@@H](N)Cc1c[nH]cn1)[C@@H](C)O)[C@@H](C)O)C(C)C)C(=O)N[C@@H](CCC(=O)O)C(=O)N[C@@H](Cc1ccccc1)C(=O)N[C@@H](CC(C)C)C(=O)N[C@@H](CCCCN)C(=O)N[C@@H](CC(N)=O)C(N)=O [Compound 13],79.6,45,60,potent inhibitors of gastric emptying
CC[C@H](C)[C@H](NC(=O)[C@H](Cc1ccccc1)NC(=O)[C@H](CC(C)C)NC(=O)[C@H](CCCNC(=N)N)NC(=O)[C@H](C)NC(=O)[C@H](C)NC(=O)[C@H](CCC(=O)O)NC(=O)[C@H](CCC(=O)O)NC(=O)[C@H](CCC(=O)O)NC(=O)[C@H](CC(C)C)NC(=O)[C@H](CCC(N)=O)NC(=O)[C@H](CCCCN)NC(=O)[C@H](CO)NC(=O)[C@H](CC(C)C)NC(=O)[C@H](CC(=O)O)NC(=O)[C@H](CO)NC(=O)[C@@H](NC(=O)[C@H](Cc1ccccc1)NC(=O)[C@@H](NC(=O)CNC(=O)[C@H](CCC(=O)O)NC(=O)CNC(=O)[C@@H](N)Cc1c[nH]cn1)[C@@H](C)O)[C@@H](C)O)C(=O)N[C@@H](CCC(=O)O)C(=O)N[C@@H](Cc1ccccc1)C(=O)N[C@@H](CC(C)C)C(=O)N[C@@H](CCCCN)C(=O)N[C@@H](CC(N)=O)C(N)=O [Compound 16],5.12,54,,
CC[C@H](C)[C@H](NC(=O)[C@H](Cc1ccccc1)NC(=O)[C@H](CC(C)C)NC(=O)[C@H](C)NC(=O)[C@@H](NC(=O)[C@H](C)NC(=O)[C@H](CCC(=O)O)NC(=O)[C@H](CCC(=O)O)NC(=O)[C@H](CCC(=O)O)NC(=O)[C@H](CC(C)C)NC(=O)[C@H](CCC(N)=O)NC(=O)[C@H](CCCCN)NC(=O)[C@H](CO)NC(=O)[C@H](CC(C)C)NC(=O)[C@H](CC(=O)O)NC(=O)[C@H](CO)NC(=O)[C@@H](NC(=O)[C@H](Cc1ccccc1)NC(=O)[C@@H](NC(=O)CNC(=O)[C@H](CCC(=O)O)NC(=O)CNC(=O)[C@@H](N)Cc1c[nH]cn1)[C@@H](C)O)[C@@H](C)O)C(C)C)C(=O)N[C@@H](CCC(=O)O)C(=O)N[C@@H](Cc1ccccc1)C(=O)N[C@@H](CC(C)C)C(=O)N[C@@H](CCCCN)C(=O)N[C@@H](CC(N)=O)C(N)=O [Compound 17],43.6,45,,
CC[C@H](C)[C@H](NC(=O)[C@H](Cc1ccccc1)NC(=O)[C@H](C)NC(=O)[C@H](CCCNC(=N)N)NC(=O)[C@@H](NC(=O)[C@H](C)NC(=O)[C@H](CCC(=O)O)NC(=O)[C@H](CCC(=O)O)NC(=O)[C@H](CCC(=O)O)NC(=O)[C@H](CC(C)C)NC(=O)[C@H](CCC(N)=O)NC(=O)[C@H](CCCCN)NC(=O)[C@H](CO)NC(=O)[C@H](CC(C)C)NC(=O)[C@H](CC(=O)O)NC(=O)[C@H](CO)NC(=O)[C@@H](NC(=O)[C@H](Cc1ccccc1)NC(=O)[C@@H](NC(=O)CNC(=O)[C@H](CCC(=O)O)NC(=O)CNC(=O)[C@@H](N)Cc1c[nH]cn1)[C@@H](C)O)[C@@H](C)O)C(C)C)C(=O)N[C@@H](CCC(=O)O)C(=O)N[C@@H](Cc1ccccc1)C(=O)N[C@@H](CC(C)C)C(=O)N[C@@H](CCCCN)C(=O)N[C@@H](CC(N)=O)C(N)=O [Compound 18],0.76,50,,
